One assay has as its system Prostate (DU145). The experiment in a line: IC50 in prostate cancer cells. Type of assay: cell-based. As to conditions: Homo sapiens, DU-145; Table 6.
For a further assay, the system named is BTSC30M. The assay is described as follows: alamarBlue cell viability, BTSC 30M. In kind it is cell-based, human. As to conditions: for IC50: Homo sapiens. As to the method: (§1) First, the library was screened for biological activity against a set of three representative GBM BTSCs derived from GBM patients, including the very aggressive GBM BTSC lines, BTSC73M, BTSC30M, BTSC68EF. Dissociated BTSC spheres were seeded at 1500 cells/96-well and treated with drug compound or vehicle (DMSO) one day after plating. Cell viability following drug treatment was assessed after 72 hrs using the ALAMARBLUE™ assay (Invitrogen) according to the manufacturer's instructions. All culture experiments were performed in triplicate with a minimum of three wells per condition.
(§2) BTSC spheres were dissociated to single cells with the enzyme Accumax (Innovative Technologies), seeded at 1500 cells/96-well and treated with drug or vehicle (DMSO) one day after plating. […] BTSC spheres were dissociated to single cells as above and plated in 96 well plates in triplicate at 3000 cells/96-well. […] Cell viability following drug treatment was assessed three days later using the ALAMARBLUE™ assay (Invitrogen) according to the manufacturer's instructions. All culture experiments were performed in triplicate with a minimum of three wells per condition.
A general note: The colour change of resazurin is a common sign of viable cells or microbes.

Assay [1] concerns leukemia cancer cells (AML-2). The experiment in a line: IC50 in leukemia cancer cells. Type of assay: cell-based. As to conditions: Table 6.
The subject of assay [2] is Breast cancer cells (MDA-MB-468). The experiment in a line: IC50 in breast cancer cells. Type of assay: cell-based. As to conditions: Homo sapiens, Table 6.
In another assay the test system is 147EF. The assay is described as follows: alamarBlue cell viability, BTSC 147EF. The settings on record: Table 4 library screen; for IC50: Homo sapiens. Type of assay: cell-based, human. An excerpt:
BTSC spheres were dissociated to single cells with the enzyme Accumax (Innovative Technologies), seeded at 1500 cells/96-well and treated with drug or vehicle (DMSO) one day after plating. Cytotoxicity studies were repeated independently at Sickkids Hospital using BTSC lines 25M, 67EF, 73EF, 84EF and 127EF. BTSC spheres were dissociated to single cells as above and plated in 96 well plates in triplicate at 3000 cells/96-well. In both sets of experiments drugs were used as serial dilutions within the range of 5 μM to 100 nM in the first set and 25 μM to 10 nM. Cell viability following drug treatment was assessed three days later using the ALAMARBLUE™ assay (Invitrogen) according to the manufacturer's instructions. All culture experiments were performed in triplicate with a minimum of three wells per condition. Table 4 below illustrates a screen of the library against a number of BTSCs using ALAMARBLUE™ assay.

In the next assay the test system is BTSC68EF. The assay is described as follows: alamarBlue cell viability, BTSC 68EF. Type of assay: cell-based, human. The settings on record: Table 4 library screen, alamarBlue; for IC50: Homo sapiens, read-out: 68EF IC50. As to the method: as §1, §2
A further assay has as its system BTSC73M. The experiment in a line: alamarBlue cell viability, BTSC 73M. As to conditions: alamarBlue; for IC50: Homo sapiens. In kind it is cell-based, human. As to the method:
as §1, §2

The subject of another assay is BTSCs. The assay is described as follows: alamarBlue cytotoxicity across BTSC lines. Type of assay: cell-based, human. As to the method: as §1, §2
A further assay has as its system pSTAT3 (Y705). The experiment in a line: Western blot of phosphorylated STAT3 in BTSCs. In kind it is cell-based, human. As to conditions: BTSC 73M, 1 μM inhibitor. An excerpt:
Blots were stained with antibodies: phospho-Y705, phospho-S727, Bcl-xL, cyclin D1, PARP and Actin. Bands were visualized with the ECL PLUS™ Western Blotting Detection System and […]™ (Amersham). […] BTSC spheres were lysed in modified RIPA buffer supplemented with Complete Mini protease (Roche) and Halt phosphatase (Thermo Scientific) inhibitor cocktails. […] Blots were stained with the following antibodies: phospho-STAT3 Y705 (1:1000, Cell Signalling Technology), phospho-STAT3 S727 (1:1000, Cell Signalling Technology), STAT3 (1:1000, Santa Cruz Biotechnology), Bcl-xL (1:1000, Cell Signalling Technology), cyclin D1 (1:1000, Cell Signalling Technology) PARP (1:1000, Cell Signalling Technology) and Actin (1:2500, Santa Cruz Biotechnology). HRP conjugated secondary antibodies, goat anti-rabbit (Cell Signalling Technology) were used at 1:2000 and donkey anti-mouse, donkey anti-goat, and goat anti-rabbit, (Calbiochem) were used at 1:6000. Bands were visualized with the ECL Plus Western Blotting Detection System and Hyperfilm (Amersham).

Where [3] appears, read: read-out: IC50 BTSC 30M, Table 6, in parallel with other cancer lines.
Where [4] appears, read: Table 4 library screen, alamarBlue.
Where [5] appears, read: read-out: 30M IC50 (μM), Table 4 library screen, alamarBlue.
Where [6] appears, read: Table 4 library screen, read-out: 73M IC50.

Structures are written as SMILES. Where two headings read alike, the source gives them in different places.

Turning to `CC(=O)Oc1cc(N(Cc2ccc(C3CCCCC3)cc2)C(=O)CN(C)S(=O)(=O)c2c(F)c(F)c(F)c(F)c2F)ccc1C(=O)O` [SH-04-08, 2-acetoxy-4-(N-(4-cyclohexylbenzyl)-2-(2,3,4,5,6-pentafluoro-N-methylphenylsulfonamido)acetamido)benzoic acid], the IC50 in the assay with Prostate (DU145) is 12 µM; in the assay with BTSC30M (setting [3]) it was 0.9 µM; in assay [1], under 1000 nM; in assay [2], under 1000 nM.

For `Cc1ccc(S(=O)(=O)N(C)CC(=O)N(Cc2ccc(C3CCCCC3)cc2)c2ccc(C(=O)NO)cc2)cc1` [Compound 44, 4-(N-(4-cyclohexylbenzyl)-2-(N,4-dimethylphenylsulfonamido)acetamido)-N-hydroxybenzamide], the IC50 with 147EF was 2450 nM; with BTSC68EF it was 1740 nM. In addition, the “30M IC50 (μM)” value in the assay on BTSC30M (setting [4]) is given as “no effect”. Also, in the assay on BTSC73M (Table 4 library screen), the “73M IC50 (μM)” value is “no effect”.

With `Cc1ccc(S(=O)(=O)N(C)CC(=O)N(Cc2ccc(C3CCCCC3)cc2)c2ccc(N)cc2)cc1` [Compound 11, N-(4-aminophenyl)-N-(4-cyclohexylbenzyl)-2-(N,4-dimethylphenylsulfonamido)acetamide], the “147EF IC50 (μM)” value with 147EF was “no effect”. Besides, in the assay on BTSC30M (setting [4]), the “30M IC50 (μM)” value is listed as “no effect”. Also, the “68EF IC50 (μM)” value in the assay with BTSC68EF is “no effect”. In addition, the “73M IC50 (μM)” value with BTSC73M (Table 4 library screen) is recorded as “no effect”.

In the case of `Cc1ccc(S(=O)(=O)N(C)CC(=O)N(Cc2ccc(C3CCCCC3)cc2)c2ccc(C(=O)O)c(F)c2)cc1` [Compound 43, 4-(N-(4-cyclohexylbenzyl)-2-(N,4-dimethylphenylsulfonamido)acetamido)-2-fluorobenzoic acid], in the assay with 147EF, the “147EF IC50 (μM)” value is recorded as “no effect”. The “30M IC50 (μM)” value in the assay on BTSC30M (setting [4]) is listed as “no effect”. Further, the “68EF IC50 (μM)” value with BTSC68EF is reported as “no effect”. The “73M IC50 (μM)” value in the assay on BTSC73M (Table 4 library screen) is reported as “no effect”.

Turning to `Cc1ccc(S(=O)(=O)N(C)CC(=O)N(Cc2ccc(C3CCCCC3)cc2)c2ccc(O)cc2)cc1` [Compound 45, N-(4-cyclohexylbenzyl)-2-(N,4-dimethylphenylsulfonamido)-N-(4-hydroxyphenyl)acetamide], in the assay with 147EF, the “147EF IC50 (μM)” value is “no effect”. The “30M IC50 (μM)” value with BTSC30M (setting [4]) is listed as “no effect”. The “68EF IC50 (μM)” value in the assay with BTSC68EF is “no effect”. In the assay with BTSC73M (Table 4 library screen), the “73M IC50 (μM)” value is “no effect”.

In the case of `CC(=O)Oc1cc(N(Cc2ccc(C3CCCCC3)cc2)C(=O)CN(C)S(=O)(=O)c2ccc(C)cc2)ccc1C(=O)O` [Compound 23, 2-acetoxy-4-(N-(4-cyclohexylbenzyl)-2-(N,4-dimethylphenylsulfonamido)acetamido)benzoic acid], the “147EF IC50 (μM)” value in the assay with 147EF is “no effect”. In addition, in the assay with BTSC30M (setting [4]), the “30M IC50 (μM)” value is on record as “no effect”. Moreover, the “68EF IC50 (μM)” value with BTSC68EF is “no effect”. Also, the “73M IC50 (μM)” value in the assay on BTSC73M (Table 4 library screen) is reported as “no effect”.

For `CN(CC(=O)N(Cc1ccc(C2CCCCC2)cc1)c1ccc([N+](=O)[O-])cc1)S(=O)(=O)c1c(F)c(F)c(F)c(F)c1F` [Compound 8, N-(4-cyclohexylbenzyl)-N-(4-nitrophenyl)-2-(2,3,4,5,6-pentafluoro-N-methylphenylsulfonamido)acetamide], the IC50 came out at 669 nM with 147EF, 0.522 µM in the assay on BTSC30M (setting [5]), 590 nM in the assay with BTSC68EF and 1.1 µM in the assay on BTSC73M (setting [6]).

For `CN(CC(=O)N(Cc1ccc(C2CCCCC2)cc1)c1ccc(C(=O)O)c(F)c1)S(=O)(=O)c1c(F)c(F)c(F)c(F)c1F` [Compound 33, 4-(N-(4-cyclohexylbenzyl)-2-(2,3,4,5,6-pentafluoro-N-methylphenylsulfonamido)acetamido)-2-fluorobenzoic acid], the IC50 was 14.2 µM with Prostate (DU145); 935 nM with 147EF; 0.724 µM with BTSC30M (setting [5]); 0.724 ± 0.013 µM in the assay with BTSC30M (read-out: IC50 (nM) in BTSC 30M); 0.689 µM in the assay with BTSC30M (setting [3]); under 1000 nM in assay [1]. The IC50 in the assay with BTSC68EF was 1460 nM; in the assay with BTSCs (Homo sapiens, collective range, units given in the value, read-out: IC50 values of the top four ranked compounds against BTSCs), 100 to 3800 nM; in the assay with BTSC73M (setting [6]), 1.23 µM; in [2] it was under 1000 nM. The EC50 in the assay on BTSCs (Homo sapiens, collective range over 8 BTSC lines, read-out: EC50s across all 8 BTSCs evaluated) was 66 to 1140 nM.

As for `C[C@H](NC(=O)/C(C#N)=C/c1cccc(Br)n1)c1ccccc1` [WP1066, reference compound], the IC50 with BTSC30M (read-out: IC50 (μM) 30M, Table 2, BTSC 30M, alamarBlue, 72 hrs) came to 1.8 ± 0.22 µM; with BTSC73M (Table 2, BTSC 73M, 72 hrs, read-out: IC50 (μM) 73M), 2.1 µM. Further, in the assay with pSTAT3 (Y705), the “pSTAT3 suppression, comparative Western blot” value is on record as “equipotent pSTAT3 suppression”.

Consider `CN(CC(=O)N(Cc1ccc(C2CCCCC2)cc1)c1ccc(C(=O)O)c(O)c1)S(=O)(=O)c1c(F)c(F)c(F)c(F)c1F` [Compound 1, reference compound], for which the “activity against BTSCs (in words)” value in the assay on BTSCs (cytotoxicity, alamarBlue) is given as “low μM activity”.

`CN(CC(=O)N(Cc1ccc(C2CCCCC2)cc1)c1ccc(N)cc1)S(=O)(=O)c1c(F)c(F)c(F)c(F)c1F` [Compound 10, N-(4-aminophenyl)-N-(4-cyclohexylbenzyl)-2-(2,3,4,5,6-pentafluoro-N-methylphenylsulfonamido)acetamide]: the IC50 in the assay on 147EF stood at 1460 nM; in the assay with BTSC30M (setting [5]), 1.33 µM; in the assay on BTSC68EF it was 1720 nM; in the assay with BTSC73M (setting [6]), 1.81 µM.

What is called IC50 is the concentration that gives 50% inhibition.

The record behind these values is patent publication US9650399B2, “Salicylic acid derivatives, pharmaceutically acceptable salt thereof, composition thereof and method of use thereof” (The Governing Council of the University of Toronto, priority 2012, dated 2017).
